Laboratory results from ChEMBL document CHEMBL5058649, “Data for DCP probe BAY 1816032” (2022).

How the values were obtained:
[1] = target: Alpha-1D adrenergic receptor (Homo sapiens) (UniProt P25100); settings: Compound concentration 10.0 uM
[2] = target: Kappa-type opioid receptor (Homo sapiens) (UniProt P41145); settings: Compound concentration 10.0 uM
[3] = target: D(3) dopamine receptor (Homo sapiens) (UniProt P35462); settings: Compound concentration 10.0 uM
[4] = target: Muscarinic acetylcholine receptor M4 (Homo sapiens) (UniProt P08173); settings: Compound concentration 10.0 uM
[5] = target: Alpha-1B adrenergic receptor (Homo sapiens) (UniProt P35368); settings: Compound concentration 10.0 uM
[6] = target: T1, Alpha-2A adrenergic receptor (Homo sapiens) (UniProt P08913); settings: Compound concentration 10.0 uM
T1 sequence (whole entry): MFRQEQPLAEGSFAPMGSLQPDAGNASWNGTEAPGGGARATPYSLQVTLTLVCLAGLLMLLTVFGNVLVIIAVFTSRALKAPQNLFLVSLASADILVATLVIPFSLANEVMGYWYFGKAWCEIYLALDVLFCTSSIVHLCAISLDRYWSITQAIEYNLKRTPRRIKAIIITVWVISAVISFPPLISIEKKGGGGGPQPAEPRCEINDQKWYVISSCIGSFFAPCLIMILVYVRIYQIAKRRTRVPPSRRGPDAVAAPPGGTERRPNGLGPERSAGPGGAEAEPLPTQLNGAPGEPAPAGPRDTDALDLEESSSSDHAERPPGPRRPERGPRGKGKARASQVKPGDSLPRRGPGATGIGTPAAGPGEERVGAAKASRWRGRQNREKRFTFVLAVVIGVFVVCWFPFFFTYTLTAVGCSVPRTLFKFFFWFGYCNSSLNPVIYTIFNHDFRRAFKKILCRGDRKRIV

[7] = target: Beta-3 adrenergic receptor (Homo sapiens) (UniProt P13945); settings: Compound concentration 10.0 uM
[8] = target: T2, Mitotic checkpoint serine/threonine-protein kinase BUB1 (Homo sapiens, UniProt O43683); test: BUB1 biochemical assay (high ATP)
T2 sequence (O43683 whole entry): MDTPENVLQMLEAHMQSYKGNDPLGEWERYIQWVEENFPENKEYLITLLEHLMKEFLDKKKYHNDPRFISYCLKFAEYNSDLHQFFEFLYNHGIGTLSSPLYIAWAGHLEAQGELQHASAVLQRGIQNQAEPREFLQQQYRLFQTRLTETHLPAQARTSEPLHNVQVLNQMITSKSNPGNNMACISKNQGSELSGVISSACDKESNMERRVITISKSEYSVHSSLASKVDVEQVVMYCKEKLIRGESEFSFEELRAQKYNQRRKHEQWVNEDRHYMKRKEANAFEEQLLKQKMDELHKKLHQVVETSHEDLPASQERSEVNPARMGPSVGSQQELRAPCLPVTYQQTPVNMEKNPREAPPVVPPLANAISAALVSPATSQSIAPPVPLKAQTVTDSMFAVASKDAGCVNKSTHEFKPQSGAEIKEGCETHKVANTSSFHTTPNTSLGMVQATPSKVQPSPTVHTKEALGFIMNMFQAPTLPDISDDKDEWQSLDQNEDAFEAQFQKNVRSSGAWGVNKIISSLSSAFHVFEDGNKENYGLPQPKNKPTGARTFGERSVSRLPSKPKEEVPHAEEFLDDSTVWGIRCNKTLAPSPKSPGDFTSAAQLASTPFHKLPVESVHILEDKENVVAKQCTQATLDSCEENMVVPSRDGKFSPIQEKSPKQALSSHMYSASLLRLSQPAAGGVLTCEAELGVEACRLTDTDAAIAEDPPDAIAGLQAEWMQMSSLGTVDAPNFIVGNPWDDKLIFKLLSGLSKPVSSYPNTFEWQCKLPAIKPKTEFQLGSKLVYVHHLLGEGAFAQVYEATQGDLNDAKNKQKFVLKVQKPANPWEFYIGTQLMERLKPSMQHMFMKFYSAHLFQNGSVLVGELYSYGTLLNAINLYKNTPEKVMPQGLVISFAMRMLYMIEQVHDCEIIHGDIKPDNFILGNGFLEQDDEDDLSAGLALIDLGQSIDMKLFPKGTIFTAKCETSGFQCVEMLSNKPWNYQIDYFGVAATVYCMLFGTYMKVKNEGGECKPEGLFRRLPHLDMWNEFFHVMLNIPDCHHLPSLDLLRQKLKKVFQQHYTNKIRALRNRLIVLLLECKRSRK

[9] = target: Histamine H2 receptor (Homo sapiens) (UniProt P25021); settings: Compound concentration 10.0 uM
[10] = target: T3, Sodium-dependent dopamine transporter (Homo sapiens, UniProt Q01959); test: GPCRScan assay: inhibition of DAT; parameters: radioligand conc. used [nm] 3.6 – 16.0, parental cells stable HEK
T3 sequence (Q01959 whole entry): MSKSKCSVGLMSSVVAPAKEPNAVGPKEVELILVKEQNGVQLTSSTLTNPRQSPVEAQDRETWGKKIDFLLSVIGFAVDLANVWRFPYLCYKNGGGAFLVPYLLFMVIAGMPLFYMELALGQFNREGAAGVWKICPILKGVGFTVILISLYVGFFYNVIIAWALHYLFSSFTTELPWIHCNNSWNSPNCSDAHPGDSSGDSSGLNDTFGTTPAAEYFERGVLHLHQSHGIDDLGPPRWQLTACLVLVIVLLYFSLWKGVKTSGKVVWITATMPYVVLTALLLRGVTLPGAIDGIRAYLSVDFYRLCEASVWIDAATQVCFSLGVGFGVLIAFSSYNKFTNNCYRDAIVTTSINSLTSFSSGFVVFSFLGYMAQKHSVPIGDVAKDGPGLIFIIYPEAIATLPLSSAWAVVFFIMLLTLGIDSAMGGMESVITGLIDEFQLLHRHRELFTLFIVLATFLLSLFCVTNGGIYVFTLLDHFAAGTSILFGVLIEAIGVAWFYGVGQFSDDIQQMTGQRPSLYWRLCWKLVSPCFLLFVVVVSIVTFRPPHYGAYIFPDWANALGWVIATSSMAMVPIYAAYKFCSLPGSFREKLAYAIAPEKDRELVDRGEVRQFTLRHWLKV

[11] = target: T3, Sodium-dependent dopamine transporter; settings: Compound concentration 10.0 uM
[12] = target: Alpha-1A adrenergic receptor (Homo sapiens) (UniProt P35348); settings: Compound concentration 10.0 uM
[13] = target: 5-hydroxytryptamine receptor 7 (Homo sapiens, UniProt P34969); settings: Compound concentration 10.0 uM
[14] = target: Beta-1 adrenergic receptor (Homo sapiens) (UniProt P08588); settings: Compound concentration 10.0 uM
[15] = target: D(4) dopamine receptor (Homo sapiens) (UniProt P21917); settings: Compound concentration 10.0 uM
[16] = target: Alpha-2C adrenergic receptor (Homo sapiens) (UniProt P18825); settings: Compound concentration 10.0 uM
[17] = target: T4, Sigma non-opioid intracellular receptor 1 (Homo sapiens, UniProt Q99720); test: GPCRScan assay: inhibition of Sigma 1; parameters: radioligand conc. used [nm] 4.0 – 5.0, parental cells HEKT
T4 sequence (Q99720 whole entry): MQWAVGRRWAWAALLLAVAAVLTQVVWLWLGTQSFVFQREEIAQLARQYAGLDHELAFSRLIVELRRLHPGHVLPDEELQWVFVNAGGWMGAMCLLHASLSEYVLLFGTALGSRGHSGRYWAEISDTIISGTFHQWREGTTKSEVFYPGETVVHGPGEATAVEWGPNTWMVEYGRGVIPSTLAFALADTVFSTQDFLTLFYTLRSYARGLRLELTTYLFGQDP

[18] = target: 5-hydroxytryptamine receptor 3A (Homo sapiens) (UniProt P46098); settings: Compound concentration 10.0 uM
[19] = target: Alpha-2B adrenergic receptor (Homo sapiens) (UniProt P18089); settings: Compound concentration 10.0 uM
Chain of Alpha-2B adrenergic receptor (Homo sapiens) (P18089 whole entry): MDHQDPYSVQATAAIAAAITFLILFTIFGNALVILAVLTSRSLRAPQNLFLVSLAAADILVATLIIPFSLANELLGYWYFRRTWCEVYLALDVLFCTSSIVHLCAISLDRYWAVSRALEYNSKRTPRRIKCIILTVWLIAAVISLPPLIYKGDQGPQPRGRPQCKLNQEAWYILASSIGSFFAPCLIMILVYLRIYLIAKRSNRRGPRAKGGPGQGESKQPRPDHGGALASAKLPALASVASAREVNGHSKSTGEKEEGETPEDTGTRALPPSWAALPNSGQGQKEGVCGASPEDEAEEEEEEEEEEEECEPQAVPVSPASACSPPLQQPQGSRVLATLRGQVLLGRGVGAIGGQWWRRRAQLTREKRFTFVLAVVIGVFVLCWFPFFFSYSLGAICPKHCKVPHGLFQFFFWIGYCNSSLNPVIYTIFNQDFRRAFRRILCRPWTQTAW

[20] = target: 5-hydroxytryptamine receptor 1A (Homo sapiens) (UniProt P08908); settings: Compound concentration 10.0 uM
[21] = target: Sodium-dependent serotonin transporter (Homo sapiens) (UniProt P31645); settings: Compound concentration 10.0 uM
Chain of Sodium-dependent serotonin transporter (Homo sapiens) (P31645 whole entry, looked up): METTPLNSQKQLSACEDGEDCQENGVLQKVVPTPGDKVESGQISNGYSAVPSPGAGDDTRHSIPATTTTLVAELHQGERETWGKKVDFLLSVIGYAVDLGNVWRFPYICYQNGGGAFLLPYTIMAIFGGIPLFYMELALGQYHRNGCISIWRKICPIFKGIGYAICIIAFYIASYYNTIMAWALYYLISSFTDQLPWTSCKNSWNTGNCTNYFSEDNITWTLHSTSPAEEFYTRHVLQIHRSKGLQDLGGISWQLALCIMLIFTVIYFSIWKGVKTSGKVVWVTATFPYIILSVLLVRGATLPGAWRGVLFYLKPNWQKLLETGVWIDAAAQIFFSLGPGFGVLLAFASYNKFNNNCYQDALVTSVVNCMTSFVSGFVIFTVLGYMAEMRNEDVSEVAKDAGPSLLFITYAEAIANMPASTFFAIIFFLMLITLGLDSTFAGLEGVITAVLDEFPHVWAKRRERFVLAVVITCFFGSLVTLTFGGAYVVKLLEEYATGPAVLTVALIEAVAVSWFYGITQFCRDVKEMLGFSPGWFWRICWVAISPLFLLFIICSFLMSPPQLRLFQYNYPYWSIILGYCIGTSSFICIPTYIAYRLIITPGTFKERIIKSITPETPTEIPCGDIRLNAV

[22] = target: T5, 5-hydroxytryptamine receptor 1D (Homo sapiens, UniProt P28221); settings: Compound concentration 10.0 uM
T5 sequence (P28221 whole entry): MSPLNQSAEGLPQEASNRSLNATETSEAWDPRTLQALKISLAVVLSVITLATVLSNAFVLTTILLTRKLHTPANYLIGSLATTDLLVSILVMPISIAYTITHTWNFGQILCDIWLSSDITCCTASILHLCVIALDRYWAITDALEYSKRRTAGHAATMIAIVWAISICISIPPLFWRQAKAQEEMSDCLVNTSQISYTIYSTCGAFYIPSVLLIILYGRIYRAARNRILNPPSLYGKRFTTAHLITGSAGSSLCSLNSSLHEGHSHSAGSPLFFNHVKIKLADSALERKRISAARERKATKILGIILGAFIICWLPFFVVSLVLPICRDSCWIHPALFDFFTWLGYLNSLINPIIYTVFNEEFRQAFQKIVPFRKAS

[23] = target: D(2) dopamine receptor (Homo sapiens) (UniProt P14416); settings: Compound concentration 10.0 uM
[24] = target: T5, 5-hydroxytryptamine receptor 1D; test: GPCRScan assay: inhibition of 5-HT1D; parameters: radioligand conc. used [nm] 1.0 – 2.0, parental cells HEKT
[25] = target: Mu-type opioid receptor (Homo sapiens) (UniProt P35372); settings: Compound concentration 10.0 uM
[26] = target: Histamine H1 receptor (Homo sapiens) (UniProt P35367); settings: Compound concentration 10.0 uM
[27] = target: Histamine H4 receptor (Homo sapiens) (UniProt Q9H3N8); settings: Compound concentration 10.0 uM
[28] = target: D(1A) dopamine receptor (Homo sapiens) (UniProt P21728); settings: Compound concentration 10.0 uM
[29] = target: T6, Sodium-dependent noradrenaline transporter (Homo sapiens, UniProt P23975); settings: Compound concentration 10.0 uM
T6 sequence (P23975 whole entry): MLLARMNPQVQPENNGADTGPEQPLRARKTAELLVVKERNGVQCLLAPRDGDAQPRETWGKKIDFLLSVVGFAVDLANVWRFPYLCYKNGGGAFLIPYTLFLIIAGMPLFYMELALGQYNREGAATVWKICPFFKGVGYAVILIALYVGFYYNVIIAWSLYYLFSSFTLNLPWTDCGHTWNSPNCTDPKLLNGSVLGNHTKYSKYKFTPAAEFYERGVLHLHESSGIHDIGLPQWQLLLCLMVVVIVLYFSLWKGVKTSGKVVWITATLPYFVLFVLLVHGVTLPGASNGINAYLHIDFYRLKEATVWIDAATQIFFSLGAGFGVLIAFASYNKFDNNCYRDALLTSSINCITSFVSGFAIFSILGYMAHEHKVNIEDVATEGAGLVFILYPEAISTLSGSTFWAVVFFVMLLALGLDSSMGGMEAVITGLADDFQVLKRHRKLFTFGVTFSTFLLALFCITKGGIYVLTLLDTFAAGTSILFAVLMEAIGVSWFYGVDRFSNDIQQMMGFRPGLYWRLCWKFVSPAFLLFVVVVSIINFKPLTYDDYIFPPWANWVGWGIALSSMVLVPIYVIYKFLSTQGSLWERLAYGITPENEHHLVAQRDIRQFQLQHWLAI

[30] = target: T7, Sigma intracellular receptor 2 (Homo sapiens, UniProt Q5BJF2); settings: Compound concentration 10.0 uM
T7 sequence (Q5BJF2 whole entry): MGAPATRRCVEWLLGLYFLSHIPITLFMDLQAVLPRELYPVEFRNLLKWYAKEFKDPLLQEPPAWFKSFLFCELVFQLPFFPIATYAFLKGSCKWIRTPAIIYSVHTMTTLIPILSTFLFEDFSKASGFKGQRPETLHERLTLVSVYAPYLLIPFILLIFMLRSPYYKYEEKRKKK

[31] = target: D(1B) dopamine receptor (Homo sapiens) (UniProt P21918); settings: Compound concentration 10.0 uM
[32] = target: 5-hydroxytryptamine receptor 6 (Homo sapiens, UniProt P50406); test: GPCRScan assay: inhibition of 5-HT6; parameters: radioligand conc. used [nm] 2.0 – 4.0, parental cells stable HEK
Chain of 5-hydroxytryptamine receptor 6 (P50406 whole entry): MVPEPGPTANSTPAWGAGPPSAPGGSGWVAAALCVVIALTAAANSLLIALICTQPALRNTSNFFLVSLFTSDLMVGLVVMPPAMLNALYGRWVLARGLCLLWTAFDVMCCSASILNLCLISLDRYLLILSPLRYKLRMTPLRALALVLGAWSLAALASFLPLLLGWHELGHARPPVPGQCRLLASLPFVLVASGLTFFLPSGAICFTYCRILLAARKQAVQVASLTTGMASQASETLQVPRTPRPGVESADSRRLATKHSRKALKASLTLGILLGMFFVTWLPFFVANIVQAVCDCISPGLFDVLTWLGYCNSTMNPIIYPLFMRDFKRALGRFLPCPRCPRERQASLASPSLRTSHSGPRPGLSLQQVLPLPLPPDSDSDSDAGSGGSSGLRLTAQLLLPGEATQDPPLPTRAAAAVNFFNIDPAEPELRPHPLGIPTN

[33] = target: 5-hydroxytryptamine receptor 2A (Homo sapiens) (UniProt P28223); settings: Compound concentration 10.0 uM
[34] = target: Delta-type opioid receptor (Homo sapiens) (UniProt P41143); settings: Compound concentration 10.0 uM
[35] = target: 5-hydroxytryptamine receptor 2B (Homo sapiens) (UniProt P41595); settings: Compound concentration 10.0 uM
[36] = target: T2, Mitotic checkpoint serine/threonine-protein kinase BUB1; test: BUB1 biochemical assay (low ATP)
[37] = target: 5-hydroxytryptamine receptor 1E (Homo sapiens) (UniProt P28566); settings: Compound concentration 10.0 uM
Chain of 5-hydroxytryptamine receptor 1E (Homo sapiens) (P28566 whole entry): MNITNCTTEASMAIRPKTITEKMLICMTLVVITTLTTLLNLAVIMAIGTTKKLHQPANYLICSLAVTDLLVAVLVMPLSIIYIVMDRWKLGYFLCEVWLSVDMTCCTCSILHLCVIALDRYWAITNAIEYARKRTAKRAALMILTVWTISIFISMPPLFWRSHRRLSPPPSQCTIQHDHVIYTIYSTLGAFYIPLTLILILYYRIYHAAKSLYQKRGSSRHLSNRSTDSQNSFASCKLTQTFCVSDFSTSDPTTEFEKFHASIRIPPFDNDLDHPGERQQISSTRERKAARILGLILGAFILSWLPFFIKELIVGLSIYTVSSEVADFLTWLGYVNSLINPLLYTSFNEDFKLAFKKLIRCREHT

[38] = organism: Rattus norvegicus; settings: Compound concentration 10.0 uM
[39] = target: T4, Sigma non-opioid intracellular receptor 1; settings: Compound concentration 10.0 uM
[40] = target: 5-hydroxytryptamine receptor 1B (Homo sapiens) (UniProt P28222); settings: Compound concentration 10.0 uM
[41] = target: T6, Sodium-dependent noradrenaline transporter; test: GPCRScan assay: inhibition of NET; parameters: radioligand conc. used [nm] 1.3 – 5.0, parental cells stable HEK
[42] = target: T7, Sigma intracellular receptor 2; test: GPCRScan assay: inhibition of Sigma 2; parameters: radioligand conc. used [nm] 5.0, parental cells HEKT
[43] = target: 5-hydroxytryptamine receptor 5A (Homo sapiens) (UniProt P47898); settings: Compound concentration 10.0 uM

COc1ccccc1Nc1nc(-c2nn(Cc3c(F)cc(OCCCO)cc3F)c3ccccc23)ncc1OC
inhibition [1]: 12.9% | inhibition [2]: 17.5% | inhibition [3]: 20% | inhibition [4]: 9.26% | inhibition [5]: -4.46% | inhibition [6]: 28.9% | inhibition [7]: 33.6% | IC50 [8]: > 20000 nM (not active) | inhibition [9]: 28.7% | Ki ([10]; read-out: Ki): 1630 nM | Ki ([10]; read-out: pKi (converted)): 1620 nM | inhibition [11]: 82.8% | inhibition [12]: -6.1% | inhibition [13]: -3.39% | inhibition [14]: 1.17% | inhibition [15]: 24.9% | inhibition [16]: 12.9% | Ki [17]: 1340 nM | inhibition [18]: -3.97% | inhibition [19]: 27.6% | inhibition [20]: 12.3% | inhibition [21]: 10.9% | inhibition [22]: 55.1% | inhibition [23]: 21.8% | Ki [24]: 8970 nM | inhibition [25]: -9.7% | inhibition [26]: 20.3% | inhibition [27]: 27.8% | inhibition [28]: 41.3% | inhibition [29]: 58.7% | inhibition [30]: 69.2% | inhibition [31]: 26.8% | Ki [32]: > 10000 nM | pKi [32]: < 5 | inhibition [33]: 6.5% | inhibition [34]: -9.55% | inhibition [35]: -3.83% | IC50 [36]: 1700 nM (not active) | inhibition [37]: -3.71% | inhibition [38]: 13.9% | inhibition [39]: 52.2% | inhibition [40]: 33.8% | Ki [41]: 2740 nM | Ki [42]: 655 nM | inhibition [43]: 3.77%
